# Measured values reported in US9999622B2, “Pyrazolothiazole compound and medicine comprising same” (NIPPON SHINYAKU CO., LTD., priority 2014, dated 2018).
# Legend:
# Type in all cases: biochemical
# [1] = target: T1, JAK3 (Homo sapiens, UniProt P52333); assay: JAK tyrosine kinase inhibitory activity in the presence of 1 mM ATP (ELISA), JAK3
# T1 construct: purchased Carna Biosciences, Inc
# T1 sequence (P52333 1-1124): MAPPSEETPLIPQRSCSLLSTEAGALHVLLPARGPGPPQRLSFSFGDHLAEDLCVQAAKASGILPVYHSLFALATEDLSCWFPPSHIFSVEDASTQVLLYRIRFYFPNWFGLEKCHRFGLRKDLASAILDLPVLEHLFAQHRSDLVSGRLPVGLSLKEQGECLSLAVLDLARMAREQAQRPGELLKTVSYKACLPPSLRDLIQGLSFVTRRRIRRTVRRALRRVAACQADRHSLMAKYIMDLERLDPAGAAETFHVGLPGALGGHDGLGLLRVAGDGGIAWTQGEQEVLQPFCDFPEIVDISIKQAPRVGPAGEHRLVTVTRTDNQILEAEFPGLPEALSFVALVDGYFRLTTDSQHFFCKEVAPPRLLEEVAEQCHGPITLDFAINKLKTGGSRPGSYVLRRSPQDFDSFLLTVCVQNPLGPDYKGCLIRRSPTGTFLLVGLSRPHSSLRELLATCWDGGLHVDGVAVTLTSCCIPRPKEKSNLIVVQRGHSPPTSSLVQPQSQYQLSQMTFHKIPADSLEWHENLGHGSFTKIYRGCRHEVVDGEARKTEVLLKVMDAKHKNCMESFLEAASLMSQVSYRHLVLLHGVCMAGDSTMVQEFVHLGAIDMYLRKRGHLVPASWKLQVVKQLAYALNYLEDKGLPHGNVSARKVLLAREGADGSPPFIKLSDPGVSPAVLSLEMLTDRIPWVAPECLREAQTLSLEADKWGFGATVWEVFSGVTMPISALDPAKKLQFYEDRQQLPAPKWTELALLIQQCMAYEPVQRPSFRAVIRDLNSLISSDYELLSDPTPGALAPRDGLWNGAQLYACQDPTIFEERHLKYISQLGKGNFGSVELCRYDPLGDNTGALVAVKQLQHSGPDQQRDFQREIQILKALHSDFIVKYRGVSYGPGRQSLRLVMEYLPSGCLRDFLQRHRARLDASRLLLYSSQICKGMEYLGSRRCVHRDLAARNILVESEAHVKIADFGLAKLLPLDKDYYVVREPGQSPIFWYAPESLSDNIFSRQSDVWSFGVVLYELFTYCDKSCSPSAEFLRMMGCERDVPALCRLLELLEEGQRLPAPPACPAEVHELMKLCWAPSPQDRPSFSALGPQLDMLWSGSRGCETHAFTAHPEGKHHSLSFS
# Outline: (§1)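 Kinase reactions ran on streptavidin-coated plates in 15 mM Tris-HCl pH 7.5, 0.01% Tween-20, 1 mM DTT, 30 °C for 1 h. Enzyme was prediluted to 7.5 nM (JAK1) or 0.75 nM (JAK2, JAK3) before addition. Phosphotyrosine was detected with HRP anti-pTyr antibody and TMB at A450.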
# [2] = target: T2, JAK1 (Homo sapiens, UniProt P23458); assay: JAK tyrosine kinase inhibitory activity in the presence of 1 mM ATP (ELISA), JAK1
# T2 construct: purchased Carna Biosciences, Inc
# T2 sequence (P23458 whole entry): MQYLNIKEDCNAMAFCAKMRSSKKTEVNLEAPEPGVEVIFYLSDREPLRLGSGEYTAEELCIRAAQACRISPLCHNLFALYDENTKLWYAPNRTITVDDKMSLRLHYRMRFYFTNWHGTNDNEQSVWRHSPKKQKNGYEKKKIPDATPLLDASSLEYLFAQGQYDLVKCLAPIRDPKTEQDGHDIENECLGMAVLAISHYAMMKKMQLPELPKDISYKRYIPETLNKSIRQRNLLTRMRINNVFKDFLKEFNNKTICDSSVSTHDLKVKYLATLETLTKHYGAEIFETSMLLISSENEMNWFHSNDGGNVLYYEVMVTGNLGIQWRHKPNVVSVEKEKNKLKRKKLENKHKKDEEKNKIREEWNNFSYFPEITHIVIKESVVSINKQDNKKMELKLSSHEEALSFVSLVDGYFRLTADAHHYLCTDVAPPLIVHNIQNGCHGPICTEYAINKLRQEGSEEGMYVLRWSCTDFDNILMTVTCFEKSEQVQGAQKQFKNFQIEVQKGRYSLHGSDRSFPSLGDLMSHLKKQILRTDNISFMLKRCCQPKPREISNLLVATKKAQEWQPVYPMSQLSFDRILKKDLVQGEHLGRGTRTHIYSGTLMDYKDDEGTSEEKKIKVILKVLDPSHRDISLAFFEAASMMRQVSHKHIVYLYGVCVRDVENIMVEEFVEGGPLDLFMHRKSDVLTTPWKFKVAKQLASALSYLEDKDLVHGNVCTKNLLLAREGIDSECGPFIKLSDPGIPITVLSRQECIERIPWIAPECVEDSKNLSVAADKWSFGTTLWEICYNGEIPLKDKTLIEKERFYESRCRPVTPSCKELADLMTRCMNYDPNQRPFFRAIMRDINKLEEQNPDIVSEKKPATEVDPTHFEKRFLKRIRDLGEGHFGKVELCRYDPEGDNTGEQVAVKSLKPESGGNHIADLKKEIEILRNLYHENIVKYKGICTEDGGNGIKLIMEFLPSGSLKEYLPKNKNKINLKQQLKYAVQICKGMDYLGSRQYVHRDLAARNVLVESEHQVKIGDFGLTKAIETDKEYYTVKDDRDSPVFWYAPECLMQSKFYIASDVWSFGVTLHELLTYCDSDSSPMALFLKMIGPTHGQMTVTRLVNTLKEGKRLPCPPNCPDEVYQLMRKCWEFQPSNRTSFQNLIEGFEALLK
# Outline: as §1
# [3] = target: T3, JAK2 (Homo sapiens, UniProt O60674); assay: JAK tyrosine kinase inhibitory activity in the presence of 1 mM ATP (ELISA), JAK2
# T3 construct: purchased Carna Biosciences, Inc
# T3 sequence (O60674 whole entry): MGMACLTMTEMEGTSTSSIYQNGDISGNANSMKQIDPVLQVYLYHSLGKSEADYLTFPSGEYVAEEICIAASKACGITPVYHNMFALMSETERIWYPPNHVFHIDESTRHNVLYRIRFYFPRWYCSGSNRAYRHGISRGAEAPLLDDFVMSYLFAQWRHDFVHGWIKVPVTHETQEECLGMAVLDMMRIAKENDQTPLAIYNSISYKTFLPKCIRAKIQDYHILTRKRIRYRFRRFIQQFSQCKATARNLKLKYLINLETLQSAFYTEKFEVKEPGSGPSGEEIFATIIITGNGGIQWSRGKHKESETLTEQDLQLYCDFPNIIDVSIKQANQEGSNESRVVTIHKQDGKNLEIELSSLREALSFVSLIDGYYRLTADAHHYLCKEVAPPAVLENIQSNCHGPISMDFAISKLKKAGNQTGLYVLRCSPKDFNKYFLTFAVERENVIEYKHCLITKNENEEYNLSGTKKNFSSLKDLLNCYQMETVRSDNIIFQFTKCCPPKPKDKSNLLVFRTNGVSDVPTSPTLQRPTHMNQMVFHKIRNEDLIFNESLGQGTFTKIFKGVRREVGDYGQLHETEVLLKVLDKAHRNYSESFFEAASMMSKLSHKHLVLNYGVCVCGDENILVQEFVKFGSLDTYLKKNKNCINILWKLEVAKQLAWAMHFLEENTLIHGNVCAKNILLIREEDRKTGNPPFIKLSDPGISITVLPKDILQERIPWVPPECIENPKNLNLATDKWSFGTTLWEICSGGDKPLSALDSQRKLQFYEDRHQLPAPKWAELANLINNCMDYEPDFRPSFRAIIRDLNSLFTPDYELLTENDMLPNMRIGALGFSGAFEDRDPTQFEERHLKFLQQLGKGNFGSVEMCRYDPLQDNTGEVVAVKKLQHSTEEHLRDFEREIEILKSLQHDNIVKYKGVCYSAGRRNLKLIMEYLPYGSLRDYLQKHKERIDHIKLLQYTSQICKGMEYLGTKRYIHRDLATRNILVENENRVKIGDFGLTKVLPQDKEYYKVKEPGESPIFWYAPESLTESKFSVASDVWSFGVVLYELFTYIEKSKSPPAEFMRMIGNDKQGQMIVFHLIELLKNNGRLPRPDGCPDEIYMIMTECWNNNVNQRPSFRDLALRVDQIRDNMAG
# Outline: as §1
IC50 [1] [nM],IC50 [2] [nM],IC50 [3] [nM],Compound
5600,450,> 10000,"COC(=O)NC1CCN(C(=O)c2cc(NCCC3CC3)nc(-c3cnn4ccsc34)n2)CC1 [Example 163, Methyl (1-6-[(2-cyclopropylethyl)amino]-2-(pyrazolo[5,1-b][1,3]thiazol-7-yl)pyrimidine-4-carbonylpiperidin-4-yl)carbamate]"
470,62,> 10000,"Cc1ccccc1C(=O)NC1CCN(C(=O)c2cc(N[C@@H](C)C3CC3)nc(-c3cnn4ccsc34)n2)CC1 [Example 184, N-1-[6-[(1S)-1-cyclopropylethyl]amino-2-(pyrazolo[5,1-b][1,3]thiazol-7-yl)pyrimidine-4-carbonyl]piperidin-4-yl-2-methylbenzamide]"
> 10000,86,620,"CC(C)(C)Nc1cc(C(=O)N2CCC(NC(=O)C3CC3)CC2)nc(-c2cnn3ccsc23)n1 [Example 36, N-(1-{[6-(tert-Butylamino)-2-(pyrazolo[5,1-b][1,3]thiazol-7-yl)pyrimidin-4-yl]carbonyl}piperidin-4-yl)cyclopropanecarboxamide]"
> 10000,1500,> 10000,"CCC(=O)N1CCC(Nc2cc(C(=O)N3CCC(NC(=O)OC)CC3)nc(-c3cnn4ccsc34)n2)CC1 [Example 198, Methyl (1-6-[(1-propanoylpiperidin-4-yl)amino]-2-(pyrazolo[5,1-b][1,3]thiazol-7-yl)pyrimidine-4-carbonylpiperidin-4-yl)carbamate]"
3200,62,1400,"C[C@H](Nc1cc(C(=O)N2CCC(NC(=O)C3CC3)CC2)nc(-c2cnn3ccsc23)n1)C(C)(C)C [Example 3, N-(1-{[6-{[(2S)-3,3-Dimethylbutan-2-yl]amino}-2-(pyrazolo[5,1-b][1,3]thiazol-7-yl)pyrimidin-4-yl]carbonyl}piperidin-4-yl)cyclopropanecarboxamide]"
> 10000,980,3200,"COC(=O)NC1CCN(C(=O)c2cc(N[C@H](C)c3ccc(F)cc3)nc(-c3cnn4ccsc34)n2)CC1 [Example 77, Methyl (1-{[6-{[(1R)-1-(4-fluorophenyl)ethyl]amino}-2-(pyrazolo[5,1-b][1,3]thiazol-7-yl)pyrimidin-4-yl]carbonyl}piperidin-4-yl)carbamate]"
> 10000,470,> 10000,"CC(C)S(=O)(=O)N1CCC(Nc2cc(C(=O)N3CCC(NC(=O)C4CC4)CC3)nc(-c3cnn4ccsc34)n2)CC1 [Example 193, N-1-[6-[1-(propane-2-sulfonyl)piperidin-4-yl]amino-2-(pyrazolo[5,1-b][1,3]thiazol-7-yl)pyrimidine-4-carbonyl]piperidin-4-ylcyclopropanecarboxamide]"
> 10000,310,5100,"CCC1CCCCN1c1cc(C(=O)N2CCC(NC(=O)C3CC3)CC2)nc(-c2cnn3ccsc23)n1 (stereo not drawn) [Example 157, N-(1-{[6-(2-ethylpiperidin-1-yl)-2-(pyrazolo[5,1-b][1,3]thiazol-7-yl)pyrimidin-4-yl]carbonyl}piperidin-4-yl)cyclopropanecarboxamide]"
> 10000,300,> 10000,"COC(=O)NC1CCN(C(=O)c2cc(N[C@H]3CC[C@@H](O)CC3)nc(-c3cnn4ccsc34)n2)CC1 [Example 177, Methyl (1-6-[(cis-4-hydroxycyclohexyl)amino]-2-(pyrazolo[5,1-b][1,3]thiazol-7-yl)pyrimidine-4-carbonylpiperidin-4-yl)carbamate]"
> 10000,240,1600,"CC1(Nc2cc(C(=O)N3CCC(NC(=O)C4CC4)CC3)nc(-c3cnn4ccsc34)n2)CC1 [Example 37, N-[1-({6-[(1-Methylcyclopropyl)amino] 2 (pyrazolo[5,1-b][1,3]thiazol-7-yl)pyrimidin-4-yl}carbonyl)piperidin-4-yl]cyclopropanecarboxamide]"
